# Results: ChEMBL document CHEMBL6071165, “Design, synthesis and biological evaluation of plant-derived miliusol derivatives achieve TNBC profound regression in vivo” (Eur J Med Chem, 2024)
# Key:
# [1] = system: BT-549; assay: Antiproliferative activity against human BT-549 cells assessed as inhibition of cell proliferation incubated for 24 hrs by MTT assay; assay type: functional, cell-based; settings: BT-549, 24 h
# [2] = system: BT-549; assay: Antiproliferative activity against human BT-549 cells assessed as inhibition of cell proliferation incubated for 48 hrs by MTT assay; assay type: functional, cell-based; settings: BT-549, 48 h
# [3] = system: MDA-MB-231; assay: Antiproliferative activity against human MDA-MB-231 cells assessed as inhibition of cell proliferation incubated for 24 hrs by MTT assay; assay type: functional, cell-based; settings: MDA-MB-231, 24 h
# [4] = system: MDA-MB-231; assay: Antiproliferative activity against human MDA-MB-231 cells assessed as inhibition of cell proliferation incubated for 48 hrs by MTT assay; assay type: functional, cell-based; settings: MDA-MB-231, 48 h
# [5] = Antiproliferative activity against human MCF-10A cells assessed as inhibition of cell proliferation incubated for 24 hrs by MTT assay; assay type: toxicity, cell-based
# [6] = Antiproliferative activity against human MCF-10A cells assessed as inhibition of cell proliferation incubated for 48 hrs by MTT assay; assay type: toxicity, cell-based
# [7] = Selectivity ratio of IC50 for antiproliferative activity against human MCF-10A cells assessed as inhibition of cell proliferation incubated for 24 hrs by MTT assay to IC50 for antiproliferative activity against human BT-549 cells assessed as inhibition of cell proliferation incubated for 24 hrs by MTT assay; assay type: toxicity, cell-based; settings: MCF-10A cells versus BT-549 cells, read-out: Ratio IC50
# [8] = Selectivity ratio of IC50 for antiproliferative activity against human MCF-10A cells assessed as inhibition of cell proliferation incubated for 48 hrs by MTT assay to IC50 for antiproliferative activity against human BT-549 cells assessed as inhibition of cell proliferation incubated for 48 hrs by MTT assay; assay type: toxicity, cell-based; settings: MCF-10A cells versus BT-549 cells, read-out: Ratio IC50
# [9] = Selectivity ratio of IC50 for antiproliferative activity against human MCF-10A cells assessed as inhibition of cell proliferation incubated for 24 hrs by MTT assay to IC50 for antiproliferative activity against human MDA-MB-231 cells assessed as inhibition of cell proliferation incubated for 24 hrs by MTT assay; assay type: cell-based; settings: MCF-10A cells versus MDA-MB-231 cells, read-out: Ratio IC50
# [10] = Selectivity ratio of IC50 for antiproliferative activity against human MCF-10A cells assessed as inhibition of cell proliferation incubated for 48 hrs by MTT assay to IC50 for antiproliferative activity against human MDA-MB-231 cells assessed as inhibition of cell proliferation incubated for 48 hrs by MTT assay; assay type: cell-based; settings: MCF-10A cells versus MDA-MB-231 cells, read-out: Ratio IC50
# [11] = system: BT-549; assay: Potency index, ratio of miliusol IC50 to test compound IC50 for antiproliferative activity against human BT-549 cells assessed as inhibition of cell proliferation incubated for 48 hrs by MTT assay; assay type: functional
# [12] = Potency index, ratio of miliusol IC50 to test compound IC50 for antiproliferative activity against human MDA-MB-231 cells assessed as inhibition of cell proliferation incubated for 48 hrs by MTT assay; assay type: functional
SMILES,IC50 [1],IC50 [2],IC50 [3],IC50 [4],IC50 at 24 h [5],IC50 at 48 h [6],selectivity ratio at 24 h [7],selectivity ratio at 48 h [8],selectivity ratio at 24 h [9],selectivity ratio at 48 h [10],Ratio IC50 [11],Ratio IC50 [12]
COC(=O)C[C@@]1([C@H](O)/C=C(\C)CCC=C(C)C)C[C@H](O)C=CC1=O [(+)-MILIUSANE XVIII],4.21 µM,2.26 µM,8.14 µM,4.23 µM,–,–,–,–,–,–,–,–
COC(=O)C[C@@]12C[C@@H](C=CC1=O)O[C@@H]2/C=C(\C)CCC=C(C)C,5.33 µM,0.98 µM,9.54 µM,1.91 µM,–,–,–,–,–,–,–,–
CC(C)=CCC/C(C)=C/[C@H]1OC(=O)C[C@]12C[C@H](OC(=O)Cc1ccc(NC(=O)c3ccccc3)cc1)C=CC2=O,0.39 µM,0.37 µM,2.22 µM,0.73 µM,–,–,–,–,–,–,–,–
CC(C)=CCC/C(C)=C/[C@H]1OC(=O)C[C@]12C[C@H](OC(=O)Cc1cccs1)C=CC2=O,10.1 µM,2.46 µM,4.82 µM,4.14 µM,–,–,–,–,–,–,–,–
CC(C)=CCC/C(C)=C/[C@H]1OC(=O)C[C@]12C[C@H](OC(=O)Cc1ccc(NC(=O)C3CC3)cc1)C=CC2=O,2.3 µM,0.23 µM,1.09 µM,0.56 µM,–,–,–,–,–,–,–,–
COc1ccccc1C(=O)Nc1ccc(CC(=O)O[C@@H]2C=CC(=O)[C@@]3(CC(=O)O[C@@H]3/C=C(\C)CCC=C(C)C)C2)cc1,1.56 µM,0.67 µM,1.29 µM,0.54 µM,–,–,–,–,–,–,–,–
CCC/C=C/C(=O)O[C@@H]1C=CC(=O)[C@@]2(CC(=O)O[C@@H]2/C=C(\C)CCC=C(C)C)C1,19.2 µM,11 µM,43.6 µM,12.4 µM,–,–,–,–,–,–,–,–
CC(C)=CCC/C(C)=C/[C@H]1OC(=O)C[C@]12C[C@H](OC(=O)Cc1ccc(NC(=O)c3ccccc3Cl)cc1)C=CC2=O,2.48 µM,0.84 µM,0.96 µM,0.58 µM,–,–,–,–,–,–,–,–
CC(C)=CCC/C(C)=C/[C@H]1OC(=O)C[C@]12C[C@H](OC(=O)/C=C/C=C/c1ccc3c(c1)OCO3)C=CC2=O,19.4 µM,2.87 µM,8.85 µM,1.66 µM,–,–,–,–,–,–,–,–
CC(C)=CCC/C(C)=C/[C@H]1OC(=O)C[C@]12C[C@H](OC(=O)c1cc3ccccc3n1C)C=CC2=O,10.4 µM,1.22 µM,2.51 µM,1.34 µM,–,–,–,–,–,–,–,–
CC(=O)O[C@H]1C(=O)[C@@]2(C)[C@H]([C@H](OC(=O)c3ccccc3)[C@]3(O)C[C@H](OC(=O)[C@H](O)[C@@H](NC(=O)c4ccccc4)c4ccccc4)C(C)=C1C3(C)C)[C@]1(OC(C)=O)CO[C@@H]1C[C@@H]2O [PACLITAXEL],0.28 µM,0.05 µM,1.72 µM,0.45 µM,0.33 µM,0.09 µM,1.18,1.8,0.19,0.2,–,–
C=CC(=O)Nc1ccc(CC(=O)O[C@@H]2C=CC(=O)[C@@]3(CC(=O)O[C@@H]3/C=C(\C)CCC=C(C)C)C2)cc1,8.71 µM,3.11 µM,4.54 µM,1.62 µM,–,–,–,–,–,–,–,–
CC(C)=CCC/C(C)=C/[C@H]1OC(=O)C[C@]12C[C@H](OC(=O)CNC(=O)OC(C)(C)C)C=CC2=O,2.11 µM,1.14 µM,1.66 µM,3.2 µM,–,–,–,–,–,–,2.7,1.5
CC(C)=CCC/C(C)=C/[C@H]1OC(=O)C[C@]12C[C@H](O)C=CC2=O,4.85 µM,3.04 µM,4.19 µM,4.68 µM,–,–,–,–,–,–,–,–
CC(C)=CCC/C(C)=C/[C@H]1OC(=O)C[C@]12C[C@H](OC(=O)Cc1ccc(NC(=O)C(C)(C)C)cc1)C=CC2=O,1.75 µM,0.8 µM,1.36 µM,0.57 µM,–,–,–,–,–,–,–,–
CC(C)=CCC/C(C)=C/[C@H]1OC(=O)C[C@]12C[C@H](OC(=O)Cc1ccc(F)cc1Cl)C=CC2=O,4.93 µM,2.14 µM,3.07 µM,5.07 µM,–,–,–,–,–,–,–,–
CC(C)=CCC/C(C)=C/[C@H]1OC(=O)C[C@]12C[C@H](OC(=O)Cn1cnc3c(=O)n(C)c(=O)n(C)c31)C=CC2=O,5.38 µM,3.47 µM,2.84 µM,4.42 µM,–,–,–,–,–,–,–,–
CC(C)=CCC/C(C)=C/[C@H]1OC(=O)C[C@]12C[C@H](OC(=O)Cn1nnc3ccccc31)C=CC2=O,8.31 µM,3.9 µM,6.35 µM,2.41 µM,–,–,–,–,–,–,–,–
CC(C)=CCC/C(C)=C/[C@H]1OC(=O)C[C@]12C[C@H](OC(=O)Cc1ccc(F)cc1)C=CC2=O,3.03 µM,2.22 µM,5 µM,7.48 µM,–,–,–,–,–,–,–,–
CC(C)=CCC/C(C)=C/[C@H]1OC(=O)C[C@]12C[C@H](OC(=O)Cc1ccc3c(c1)OCO3)C=CC2=O,6.81 µM,3.38 µM,2.23 µM,2.77 µM,–,–,–,–,–,–,–,–
CC(C)=CCC/C(C)=C/[C@H]1OC(=O)C[C@]12C[C@H](OC(=O)Cc1ccc(NC(=O)OC(C)(C)C)cc1)C=CC2=O,2.03 µM,1.32 µM,0.46 µM,1.03 µM,–,–,–,–,–,–,–,–
COc1cccc(OC)c1C(=O)Nc1ccc(CC(=O)O[C@@H]2C=CC(=O)[C@@]3(CC(=O)O[C@@H]3/C=C(\C)CCC=C(C)C)C2)cc1,2.09 µM,1.45 µM,1.3 µM,0.78 µM,–,–,–,–,–,–,–,–
CC(C)=CCC/C(C)=C/[C@H]1OC(=O)C[C@]12C[C@H](OC(=O)Cc1ccc(NC(=O)/C=C/c3ccccc3)cc1)C=CC2=O,0.99 µM,0.22 µM,0.85 µM,0.44 µM,–,–,–,–,–,–,–,–
CC(C)=CCC/C(C)=C/[C@H]1OC(=O)C[C@]12C[C@H](OC(=O)Cc1ccc(Cl)cc1Cl)C=CC2=O,15.6 µM,8.23 µM,19 µM,35.4 µM,–,–,–,–,–,–,–,–
CC(=O)Nc1ccc(CC(=O)O[C@@H]2C=CC(=O)[C@@]3(CC(=O)O[C@@H]3/C=C(\C)CCC=C(C)C)C2)cc1,7.01 µM,4.19 µM,4.73 µM,2.16 µM,–,–,–,–,–,–,–,–
CC(C)=CCC/C(C)=C/[C@H]1OC(=O)C[C@]12C[C@H](OC(=O)c1csc(Br)n1)C=CC2=O,5.03 µM,0.62 µM,3.43 µM,2.06 µM,–,–,–,–,–,–,5,–
CC(C)=CCC/C(C)=C/[C@H]1OC(=O)C[C@]12C[C@H](OC(=O)Cc1ccc(NC(=O)[C@H](Cl)c3ccccc3)cc1)C=CC2=O,1.04 µM,0.58 µM,0.63 µM,0.42 µM,–,–,–,–,–,–,–,–
CC(C)=CCC/C(C)=C/[C@H]1OC(=O)C[C@]12C[C@H](OC(=O)Cc1ccc(NC(=O)c3cccs3)cc1)C=CC2=O,2.24 µM,0.64 µM,1.63 µM,0.46 µM,–,–,–,–,–,–,–,–
CC(C)=CCC/C(C)=C/[C@H]1OC(=O)C[C@]12C[C@H](OC(=O)CCC(=O)NCC1CC3C=CC1C3)C=CC2=O (stereo not given in full),3.31 µM,1.55 µM,3.33 µM,1.34 µM,–,–,–,–,–,–,–,–
